Experimental data as given in PubChem BioAssay AID248 (DTP/NCI, 2004).
Toxic doses and inconclusive results are not listed. No stated cut-off is given here; in the data, active means T/C of 150% or more; inactive means T/C below 125%.

Test system: L1210 leukemia ip in BDF1 mice, survival T/C
Test: NCI In Vivo Anticancer Drug Screen. Data for tumor model L1210 Leukemia (intraperitoneal) in B6D2F1 (BDF1) mice
Settings: endpoint: mean survival time, higher = longer survival
Method in brief: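 In this screen, tumor-bearing mice given compound are compared to those given vehicle, and their survival values are reported as a treated-to-control quotient.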

[1] = dose: 100.0 mg/kg/injection, schedule: Q01DX001 (ip), vehicle: saline
[2] = dose: 200.0 mg/kg/injection, schedule: Q01DX001 (ip), vehicle: saline
[3] = dose: 400.0 mg/kg/injection, schedule: Q01DX001 (ip), vehicle: saline
[4] = dose: 100.0 mg/kg/injection, schedule: Q04DX003 (ip), vehicle: saline with Tween-80
[5] = dose: 200.0 mg/kg/injection, schedule: Q04DX003 (ip), vehicle: saline with Tween-80
[6] = dose: 400.0 mg/kg/injection, schedule: Q04DX003 (ip), vehicle: saline with Tween-80
[7] = dose: 100.0 mg/kg/injection, schedule: Q01DX009 (ip), vehicle: Klucel (hydroxypropylcellulose) (HPC)
[8] = dose: 100.0 mg/kg/injection, schedule: Q04DX003 (ip), vehicle: Klucel (hydroxypropylcellulose) (HPC)
[9] = dose: 200.0 mg/kg/injection, schedule: Q01DX009 (ip), vehicle: Klucel (hydroxypropylcellulose) (HPC)
[10] = dose: 200.0 mg/kg/injection, schedule: Q04DX003 (ip), vehicle: Klucel (hydroxypropylcellulose) (HPC)
[11] = dose: 400.0 mg/kg/injection, schedule: Q01DX009 (ip), vehicle: Klucel (hydroxypropylcellulose) (HPC)
[12] = dose: 400.0 mg/kg/injection, schedule: Q04DX003 (ip), vehicle: Klucel (hydroxypropylcellulose) (HPC)
[13] = dose: 100.0 mg/kg/injection, schedule: Q01DX001 (ip), vehicle: Klucel (hydroxypropylcellulose) (HPC)
[14] = dose: 200.0 mg/kg/injection, schedule: Q01DX001 (ip), vehicle: Klucel (hydroxypropylcellulose) (HPC)
[15] = dose: 100.0 mg/kg/injection, schedule: Q01DX009 (ip), vehicle: saline with Tween-80
[16] = dose: 200.0 mg/kg/injection, schedule: Q01DX009 (ip), vehicle: saline with Tween-80
[17] = dose: 400.0 mg/kg/injection, schedule: Q01DX009 (ip), vehicle: saline with Tween-80

Measured: T/C

O=[N+]([O-])c1ccc2nc(-c3ccccc3)nn2c1
inactive: dose: 100.0 mg/kg/injection, schedule: Q01DX001 (ip), vehicle: acetone 92 % of control | dose: 200.0 mg/kg/injection, schedule: Q01DX001 (ip), vehicle: acetone 87 % of control | dose: 400.0 mg/kg/injection, schedule: Q01DX001 (ip), vehicle: acetone 93 % of control

Cc1cc(F)ccc1[As](=O)(O)O
inactive: dose: 25.0 mg/kg/injection, schedule: Q04DX003 (ip), vehicle: saline with Tween-80 101 % of control

COc1ccn(C2CCCO2)c(=O)n1 (configuration not stated)
inactive: dose: 50.0 mg/kg/injection, schedule: Q01DX001 (ip), vehicle: saline 101 % of control | [1] 101 % of control | [2] 104 % of control | [3] 104 % of control

O=C1OC(=O)C2CC=CCC12 (configuration not stated)
inactive: [4] 106 % of control | [5] 106 % of control | [6] 98 % of control

O=C(NCCBr)Nc1ccc2c(c1)OCO2
inactive: [7] 94 % of control | [8] 111 % of control | [9] 102 % of control | [10] 101 % of control | [11] 96 % of control | [12] 108 % of control

C=CCONC(=O)Oc1ccccc1
inactive: dose: 75.0 mg/kg/injection, schedule: Q01DX001 (ip), vehicle: other 106 % of control | dose: 150.0 mg/kg/injection, schedule: Q01DX001 (ip), vehicle: other 97 % of control

NC(=O)CNC(=O)C(CSCc1ccccc1)NC(=O)OCc1ccccc1 (configuration not stated)
inactive: dose: 25.0 mg/kg/injection, schedule: Q01DX009 (ip), vehicle: Klucel (hydroxypropylcellulose) (HPC) 89 % of control | dose: 50.0 mg/kg/injection, schedule: Q01DX009 (ip), vehicle: Klucel (hydroxypropylcellulose) (HPC) 93 % of control | [7] 94 % of control | [8] 90 % of control

N#C/C(=C1C=C/C(=N/O)C(Br)=C/1)c1ccccc1
inactive: [4] 96 % of control | [5] 100 % of control | [6] 98 % of control

CC(C)CCc1c(N)nc(NCCCc2ccccc2)nc1N
inactive: [13] 91 % of control | [14] 103 % of control

CN(CCC#N)C1=CCCC1
inactive: dose: 100.0 mg/kg/injection, schedule: Q04DX003 (ip), vehicle: saline sonified 100 % of control | dose: 200.0 mg/kg/injection, schedule: Q04DX003 (ip), vehicle: saline sonified 111 % of control | dose: 400.0 mg/kg/injection, schedule: Q04DX003 (ip), vehicle: saline sonified 96 % of control

Cc1nc2ccc(N=Cc3ccc(N(CCCl)CCCl)cc3C)cc2[nH]1
inactive: [8] 104 % of control | [10] 102 % of control | [12] 101 % of control

Brc1ccc2c(c1)-c1cc(Br)ccc1C2
inactive: dose: 50.0 mg/kg/injection, schedule: Q04DX002 (ip), vehicle: saline with Tween-80 95 % of control | dose: 100.0 mg/kg/injection, schedule: Q04DX002 (ip), vehicle: saline with Tween-80 100 % of control | dose: 200.0 mg/kg/injection, schedule: Q04DX002 (ip), vehicle: saline with Tween-80 103 % of control | dose: 400.0 mg/kg/injection, schedule: Q04DX002 (ip), vehicle: saline with Tween-80 95 % of control

CC12C=CC(=O)C=C1CCC1C3CCC(O)(C(=O)CO)C3(C)CC(O)C12F (configuration not stated)
inactive: dose: 25.0 mg/kg/injection, schedule: Q04DX003 (sc), vehicle: steriod suspending solution 108 % of control | dose: 50.0 mg/kg/injection, schedule: Q04DX003 (sc), vehicle: steriod suspending solution 106 % of control | dose: 100.0 mg/kg/injection, schedule: Q04DX003 (sc), vehicle: steriod suspending solution 123 % of control | dose: 150.0 mg/kg/injection, schedule: Q04DX003 (sc), vehicle: steriod suspending solution 100 % of control | dose: 225.0 mg/kg/injection, schedule: Q04DX003 (sc), vehicle: steriod suspending solution 111 % of control | dose: 335.0 mg/kg/injection, schedule: Q04DX003 (sc), vehicle: steriod suspending solution 105 % of control

CCc1c(N)nc(N)[nH]c1=O
inactive: dose: 44.0 mg/kg/injection, schedule: Q01DX001 (ip), vehicle: Klucel (hydroxypropylcellulose) (HPC) 102 % of control | dose: 67.0 mg/kg/injection, schedule: Q01DX001 (ip), vehicle: Klucel (hydroxypropylcellulose) (HPC) 96 % of control | [13] 98 % of control | dose: 150.0 mg/kg/injection, schedule: Q01DX001 (ip), vehicle: Klucel (hydroxypropylcellulose) (HPC) 96 % of control | [14] 104 % of control

COc1ccc(C(=O)c2ccc(Br)s2)cc1
inactive: [7] 94 % of control | [8] 97 % of control | [9] 97 % of control | [10] 97 % of control | [11] 95 % of control | [12] 96 % of control

N#Cc1ncn(C2OC(CO)C(O)C2O)c1N (configuration not stated)
inactive: dose: 100.0 mg/kg/injection, schedule: Q01DX005 (ip), vehicle: saline 103 % of control | dose: 200.0 mg/kg/injection, schedule: Q01DX005 (ip), vehicle: saline 96 % of control

O=C(Nc1ccc(C2=NCCN2)c(O)c1)c1cccc(C(=O)Nc2ccc(C3=NCCN3)c(O)c2)c1
inactive: dose: 10.0 mg/kg/injection, schedule: Q01DX Z (ip), vehicle: carboxymethylcellulose (CMC) 101 % of control | dose: 20.0 mg/kg/injection, schedule: Q01DX Z (ip), vehicle: carboxymethylcellulose (CMC) 109 % of control | dose: 40.0 mg/kg/injection, schedule: Q01DX Z (ip), vehicle: carboxymethylcellulose (CMC) 101 % of control | dose: 80.0 mg/kg/injection, schedule: Q01DX Z (ip), vehicle: carboxymethylcellulose (CMC) 101 % of control

CCCCCCCCCCCCCCCC(=O)N(CCCN)CCCN(CCCN)C(=O)CCCCCCCCCCCCCCC
inactive: dose: 100.0 mg/kg/injection, schedule: Q04DX003 (ip), vehicle: saline 98 % of control

CC(=O)SCCC(=O)NCNC(=O)CCSC(C)=O
inactive: [15] 96 % of control | [4] 93 % of control | [16] 96 % of control | [5] 93 % of control | [17] 100 % of control | [6] 92 % of control

O=C(CCl)NC1CCC(CC2CCCCC2)CC1 (configuration not stated)
inactive: [8] 99 % of control | [10] 93 % of control | [12] 89 % of control

CCCCCCCCCCCCCC[S+](C)C
inactive: dose: 12.5 mg/kg/injection, schedule: Q01DX009 (ip), vehicle: saline 108 % of control | dose: 12.5 mg/kg/injection, schedule: Q04DX003 (ip), vehicle: saline 101 % of control | dose: 25.0 mg/kg/injection, schedule: Q01DX009 (ip), vehicle: saline 123 % of control | dose: 25.0 mg/kg/injection, schedule: Q04DX003 (ip), vehicle: saline 90 % of control | dose: 50.0 mg/kg/injection, schedule: Q04DX003 (ip), vehicle: saline 96 % of control

COc1ccc(N=Nc2sc(N)nc2-c2ccc(Cl)cc2)cc1
inactive: dose: 12.5 mg/kg/injection, schedule: Q01DX001 (ip), vehicle: saline with Tween-80 93 % of control | dose: 25.0 mg/kg/injection, schedule: Q01DX001 (ip), vehicle: saline with Tween-80 90 % of control | dose: 50.0 mg/kg/injection, schedule: Q01DX001 (ip), vehicle: saline with Tween-80 101 % of control

O=[N+]([O-])c1cccc(OCCCOc2cccc([N+](=O)[O-])c2)c1
inactive: [1] 103 % of control | [2] 102 % of control | [3] 100 % of control

CC(=O)c1c(C)[nH]c(C(=O)O)c1C
inactive: dose: 100.0 mg/kg/injection, schedule: Q01DX001 (ip), vehicle: saline with Tween-80 103 % of control | dose: 200.0 mg/kg/injection, schedule: Q01DX001 (ip), vehicle: saline with Tween-80 100 % of control | dose: 400.0 mg/kg/injection, schedule: Q01DX001 (ip), vehicle: saline with Tween-80 90 % of control

COc1ccccc1SC(=O)N(C)C
inactive: [15] 102 % of control | [4] 105 % of control | [16] 98 % of control | [5] 96 % of control | [17] 93 % of control | [6] 113 % of control

C(#CSCc1ccccc1)SCc1ccccc1
inactive: [7] 94 % of control | [8] 104 % of control | [9] 96 % of control | [10] 102 % of control | [11] 97 % of control | [12] 104 % of control
